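Dose response: 5 concentrations. Exposure: 48 h. Format: 96-well plates. Endpoint: linear interpolation; highest concentration if not reached. GI50 is the concentration that inhibits growth by half.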 The source made the active and inactive calls. Rule as the data show it: active = GI50 up to about 1.1 µM and inactive = higher.
Columns and labels:
Assay in all cases: NCI anticancer screen, dose series, 48 h
[1] = tested on: EKVX
[2] = tested on: TK-10
[3] = tested on: HCT-15
[4] = tested on: A549
[5] = tested on: UO-31
[6] = tested on: KM-20L2
[7] = tested on: SNB-78
[8] = tested on: HL-60
[9] = tested on: SF-268
[10] = tested on: CAKI-1
[11] = tested on: RPMI-8226
[12] = tested on: RXF 393
[13] = tested on: KM12
[14] = tested on: HOP-92
[15] = tested on: RXF 631
[16] = tested on: IGROV-1
[17] = tested on: CCRF-CEM
[18] = tested on: OVCAR-5
[19] = tested on: M19-MEL
[20] = tested on: K562
[21] = tested on: LOX IMVI
[22] = tested on: DLD-1
[23] = tested on: SK-MEL-5
[24] = tested on: OVCAR-4
[25] = tested on: NCI-H226
[26] = tested on: SF-295
[27] = tested on: U-251
[28] = tested on: OVCAR-3
[29] = tested on: NCI-H522
[30] = tested on: UACC-257
[31] = tested on: SW-620
[32] = tested on: SK-OV-3
[33] = tested on: HCT-116
[34] = tested on: SNB-75
[35] = tested on: OVCAR-8
[36] = tested on: LXFL 529
[37] = tested on: Malme-3M
[38] = tested on: ACHN
[39] = tested on: DMS-273
[40] = tested on: MOLT-4
[41] = tested on: UACC-62
[42] = tested on: DMS-114
[43] = tested on: HT-29
[44] = tested on: COLO 205
[45] = tested on: M14
[46] = tested on: NCI-H460
[47] = tested on: 786-0
[48] = tested on: SR
[49] = tested on: HOP-18
[50] = tested on: SK-MEL-28
[51] = tested on: XF498
[52] = tested on: A498
[53] = tested on: SK-MEL-2
[54] = tested on: SN12C
[55] = tested on: SNB-19
[56] = tested on: HOP-62
[57] = tested on: HCC 2998
[58] = tested on: NCI-H23
[59] = tested on: SF-539

O=C1CCNC(=O)NC1
GI50 [1]: > 100 µM (inactive) | GI50 [2]: > 100 µM (inactive) | GI50 [3]: > 100 µM | GI50 [4]: > 100 µM (inactive) | GI50 [5]: > 100 µM (inactive) | GI50 [6]: > 100 µM (inactive) | GI50 [7]: > 100 µM (inactive) | GI50 [8]: > 100 µM (inactive) | GI50 [9]: > 100 µM (inactive) | GI50 [10]: > 100 µM (inactive) | GI50 [11]: > 100 µM (inactive) | GI50 [12]: > 100 µM (inactive) | GI50 [13]: > 100 µM (inactive) | GI50 [14]: > 100 µM (inactive) | GI50 [15]: > 100 µM (inactive) | GI50 [16]: > 100 µM (inactive) | GI50 [17]: > 100 µM (inactive) | GI50 [18]: > 100 µM (inactive) | GI50 [19]: > 100 µM (inactive) | GI50 [20]: > 100 µM (inactive) | GI50 [21]: > 100 µM (inactive) | GI50 [22]: > 100 µM (inactive) | GI50 [23]: > 100 µM (inactive) | GI50 [24]: > 100 µM (inactive) | GI50 [25]: > 100 µM (inactive) | GI50 [26]: > 100 µM (inactive) | GI50 [27]: > 100 µM (inactive) | GI50 [28]: > 100 µM (inactive) | GI50 [29]: > 100 µM (inactive) | GI50 [30]: > 100 µM (inactive) | GI50 [31]: > 100 µM (inactive) | GI50 [32]: > 100 µM (inactive) | GI50 [33]: > 100 µM (inactive) | GI50 [34]: > 100 µM (inactive) | GI50 [35]: > 100 µM (inactive) | GI50 [36]: > 100 µM (inactive) | GI50 [37]: > 100 µM (inactive) | GI50 [38]: > 100 µM (inactive) | GI50 [39]: > 100 µM (inactive) | GI50 [40]: 23.1 µM (inactive) | GI50 [41]: > 100 µM (inactive) | GI50 [42]: > 100 µM (inactive) | GI50 [43]: > 100 µM (inactive) | GI50 [44]: > 100 µM (inactive) | GI50 [45]: > 100 µM (inactive) | GI50 [46]: > 100 µM (inactive) | GI50 [47]: > 100 µM (inactive) | GI50 [48]: > 100 µM (inactive) | GI50 [49]: > 100 µM (inactive) | GI50 [50]: > 100 µM (inactive) | GI50 [51]: > 100 µM (inactive) | GI50 [52]: > 100 µM (inactive) | GI50 [53]: > 100 µM (inactive) | GI50 [54]: > 100 µM (inactive) | GI50 [55]: > 100 µM (inactive) | GI50 [56]: > 100 µM (inactive)

Cc1cccc(NC(=O)C(=O)C(C2OC(=O)c3ccccc32)[N+](=O)[O-])c1C (stereo not drawn)
GI50 [1]: 17.6 µM (inactive) | GI50 [2]: 18 µM (inactive) | GI50 [3]: 5.21 µM | GI50 [57]: 13.8 µM (inactive) | GI50 [4]: 18.3 µM (inactive) | GI50 [5]: 9.53 µM (inactive) | GI50 [6]: 18.4 µM (inactive) | GI50 [7]: 17.5 µM (inactive) | GI50 [8]: 2.37 µM (inactive) | GI50 [9]: 7.52 µM (inactive) | GI50 [10]: 7.43 µM (inactive) | GI50 [12]: 6.87 µM (inactive) | GI50 [13]: 12.8 µM (inactive) | GI50 [15]: 5.98 µM (inactive) | GI50 [16]: 9.82 µM (inactive) | GI50 [17]: 3.52 µM (inactive) | GI50 [18]: 19.1 µM (inactive) | GI50 [19]: 1.87 µM (inactive) | GI50 [20]: 4.42 µM (inactive) | GI50 [58]: 5.46 µM (inactive) | GI50 [21]: 2.4 µM (inactive) | GI50 [22]: 6.43 µM (inactive) | GI50 [23]: 6.53 µM (inactive) | GI50 [24]: 8.11 µM (inactive) | GI50 [25]: 12.6 µM (inactive) | GI50 [26]: 14.9 µM (inactive) | GI50 [27]: 3.64 µM (inactive) | GI50 [28]: 2.08 µM (inactive) | GI50 [29]: 2 µM (inactive) | GI50 [30]: 5.61 µM (inactive) | GI50 [31]: 5.57 µM (inactive) | GI50 [32]: 13.6 µM (inactive) | GI50 [33]: 5.96 µM (inactive) | GI50 [34]: 5.51 µM (inactive) | GI50 [59]: 18.9 µM (inactive) | GI50 [35]: 13.2 µM (inactive) | GI50 [36]: 8.04 µM (inactive) | GI50 [37]: 3.79 µM (inactive) | GI50 [38]: 10.9 µM (inactive) | GI50 [39]: 2.59 µM (inactive) | GI50 [40]: 2.99 µM (inactive) | GI50 [41]: 10.9 µM (inactive) | GI50 [42]: 2.86 µM (inactive) | GI50 [43]: 16.7 µM (inactive) | GI50 [44]: 15.4 µM (inactive) | GI50 [45]: 13.8 µM (inactive) | GI50 [46]: 6 µM (inactive) | GI50 [47]: 10.2 µM (inactive) | GI50 [48]: 3.13 µM (inactive) | GI50 [49]: 10.5 µM (inactive) | GI50 [50]: 12.6 µM (inactive) | GI50 [51]: 6.81 µM (inactive) | GI50 [52]: 15.7 µM (inactive) | GI50 [53]: 5.06 µM (inactive) | GI50 [54]: 6.34 µM (inactive) | GI50 [55]: 16.2 µM (inactive) | GI50 [56]: 17.2 µM (inactive)

Source: ChEMBL document CHEMBL1201862, “PubChem BioAssay data set” (2004)
